# Assay results reported in patent US6376666B1 (Nauchno-Issledovatelsky Institut Farmakologii Rossiiskoi …, priority 1994, dated 2002).
# Values joined by “and” are separate entries in the source; they are usually repeats but may differ in a detail not shown here. Equal entries are not always repeated. “Also recorded” adds a separate entry of the source. Marks after values point to notes of the source that are not given here.
# Columns and labels:
# cats = experiment: hemodynamics and activity of intact heart in cats under anesthesia; assay type: in vivo; conditions: for Cardiac volume, change from basal level / Heart rate, change from basal level / Mean blood flow accelaration (aortic), change from basal level / Mean blood pressure, change from basal level / Stroke volume, change from basal level: cats
# Description: The effects of compounds on the hemodynamics and activity of intact heart were studied in cats under anesthesia. The experiments were carried out under conditions of open chest. The phase curve of aortic blood flow was the main index of cardiac activity. The compounds were administered i.v. in physiological solution. The t-Student' test was used to estimate the statistical significance.
# [1] = test system: calcium chloride arrhythmia; experiment: calcium chloride arrhythmia in concious rats; assay type: in vivo; conditions: concious rats
# Description: In these experiments the outbred concious rats 180-200 g of weight were injected with 10% solution of calcium chloride in tail vein at dose range of 250-300 mg/kg.
# [2] = test system: ventricular fibrillations; experiment: ventricular fibrillation, 7-min occlusion and reperfusion of coronary artery in anesthetized rats; assay type: in vivo; conditions: anesthetized rats, 1 mg/kg i.v., 18 animals
# In short: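 Male rats (180-240 g) under nembutal (60 mg/kg i.v.), open chest, ventilated, given compounds i.v. (1,0 or 2,0 mg/kg; saline control). Left coronary artery occluded 7 min, then reperfused, with lead II ECG. Fibrillations and arrhythmias counted and scored on a 0–4 point scale.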
# [3] = test system: ventricular disturbances of heart rhythm; experiment: arrhythmia in concious dogs according to Harris; assay type: in vivo; conditions: for % of the ectopic contractions / heart rate: concious dogs according to Harris, compound XX 1.0 mg/kg i.v., individual dogs
# Description: The arrhythmia in concious dogs according to Harris. The experiments were conducted in mongrel dogs of either sex weighing 9-14 kg. Under anesthesia (40 mg/kg of nembutal i.v.) and artificial respiration the two-step occlusion of the left anterior descending coronary artery was performed. The constant ECG disturbances of the heart rhythm were recorded after 24 hours. […] T-Student' test was used for statistical calculation.
# adrenaline arrhythmia = adrenaline arrhythmia in concious rabbits; conditions: given 2 min before arrhythmogenic dose of adrenaline
# [4] = 1.0 mg/kg i.v., after injection
# [5] = 2.0 mg/kg i.v., after injection
# [6] = 10 min after compound injection
# [7] = 15 min after compound injection
# [8] = 20 min after compound injection
# [9] = 30 min after compound injection
# [10] = 40 min after compound injection
# [11] = 50 min after compound injection
smiles,measurement,setting,value
"CN(C)CCSc1nc2ccccc2n1CCc1ccccc1 [Compound XX, 1-(β-Phenylethyl)-2-[2-(dimethylamino)ethylthio]-benzimidazole]","effect on contractile function of heart, in words","cats; cats i.v., same doses as bradycardia",slightly enhanced the contractility of myocardium
same,duration of bradycardia after administration,"cats; cats i.v., VIII 1,0, IX 0,5 and 1,0, XX 1,0 and 2,0 mg/kg",30 min
same,"effect on heart rate, in words","cats; cats i.v., VIII 1,0, IX 0,5 and 1,0, XX 1,0 and 2,0 mg/kg, XXIII 1.0, verapamil 0.5 mg/kg",expressed bradycardia
same,"Cardiac volume, change from basal level","cats; 1.0 mg/kg i.v., after 2 min",+2.5 ± 0.9%
same,"Heart rate, change from basal level","cats; 1.0 mg/kg i.v., after 2 min",−4.9 ± 1.5 %
same,"Mean blood flow accelaration (aortic), change from basal level","cats; 1.0 mg/kg i.v., after 2 min",−1.4 +1.8%
same,"Mean blood pressure, change from basal level","cats; 1.0 mg/kg i.v., after 2 min",± 5.1 ± 1.7 %
same,"Stroke volume, change from basal level","cats; 1.0 mg/kg i.v., after 2 min",+7.9 ± 1.6 %
same,"Cardiac volume, change from basal level","cats; 1.0 mg/kg i.v., after 5 min",−3.9 ± 1.5%
same,"Heart rate, change from basal level","cats; 1.0 mg/kg i.v., after 5 min",−5.2 ± 2.1%
same,"Mean blood flow accelaration (aortic), change from basal level","cats; 1.0 mg/kg i.v., after 5 min",−3.6 ± 2.4%
same,"Mean blood pressure, change from basal level","cats; 1.0 mg/kg i.v., after 5 min",+2.0 ± 1.0%
same,"Stroke volume, change from basal level","cats; 1.0 mg/kg i.v., after 5 min",+1.7 ± 3.4%
same,"Cardiac volume, change from basal level","cats; 1.0 mg/kg i.v., after 10 min",−3.9 ± 2.8%
same,"Heart rate, change from basal level","cats; 1.0 mg/kg i.v., after 10 min",−4.3 ± 1.9%
same,"Mean blood flow accelaration (aortic), change from basal level","cats; 1.0 mg/kg i.v., after 10 min",−0.6 ± 2.1%
same,"Mean blood pressure, change from basal level","cats; 1.0 mg/kg i.v., after 10 min",+1.7 ± 1.2%
same,"Stroke volume, change from basal level","cats; 1.0 mg/kg i.v., after 10 min",+0.6 ± 3.5%
same,"Cardiac volume, change from basal level","cats; 1.0 mg/kg i.v., after 20 min",−4.1 ± 2.8%
same,"Heart rate, change from basal level","cats; 1.0 mg/kg i.v., after 20 min",−5.0 ± 4.2%
same,"Mean blood flow accelaration (aortic), change from basal level","cats; 1.0 mg/kg i.v., after 20 min",−2.8 ± 2.6%
same,"Mean blood pressure, change from basal level","cats; 1.0 mg/kg i.v., after 20 min",+3.3 ± 2.4%
same,"Stroke volume, change from basal level","cats; 1.0 mg/kg i.v., after 20 min",+1.4 ± 3.8%
same,"Cardiac volume, change from basal level","cats; 1.0 mg/kg i.v., after 30 min",−7.0 ± 3.4%
same,"Heart rate, change from basal level","cats; 1.0 mg/kg i.v., after 30 min",−5.0 ± 4.2%
same,"Mean blood flow accelaration (aortic), change from basal level","cats; 1.0 mg/kg i.v., after 30 min",−3.2 ± 1.8%
same,"Mean blood pressure, change from basal level","cats; 1.0 mg/kg i.v., after 30 min",+0.3 ± 3.0%
same,"Stroke volume, change from basal level","cats; 1.0 mg/kg i.v., after 30 min",−0.5 ± 4.4%
same,"Heart rate, change from basal level",cats; [4],−7.9 ± 1.7 %
same,"Mean blood flow accelaration (aortic), change from basal level",cats; [4],+10.7 ± 3.3 %
same,"Mean blood pressure, change from basal level",cats; [4],−0.9 ± 2.7%
same,"Stroke volume, change from basal level",cats; [4],+25.2 ± 2.6 %
same,"Cardiac volume, change from basal level","cats; 2.0 mg/kg i.v., after 2 min",+1.2 ± 2.8%
same,"Heart rate, change from basal level","cats; 2.0 mg/kg i.v., after 2 min",−5.2 ± 1.8 %
same,"Mean blood flow accelaration (aortic), change from basal level","cats; 2.0 mg/kg i.v., after 2 min",−3.0 ± 3.9%
same,"Mean blood pressure, change from basal level","cats; 2.0 mg/kg i.v., after 2 min",± 4.6 ± 3.5%
same,"Stroke volume, change from basal level","cats; 2.0 mg/kg i.v., after 2 min",+6.9 ± 3.1%
same,"Cardiac volume, change from basal level","cats; 2.0 mg/kg i.v., after 5 min",−0.5 ± 3.1%
same,"Heart rate, change from basal level","cats; 2.0 mg/kg i.v., after 5 min",−4.5 ± 1.4 %
same,"Mean blood flow accelaration (aortic), change from basal level","cats; 2.0 mg/kg i.v., after 5 min",+1.6 ± 5.1%
same,"Mean blood pressure, change from basal level","cats; 2.0 mg/kg i.v., after 5 min",+3.3 ± 2.5%
same,"Stroke volume, change from basal level","cats; 2.0 mg/kg i.v., after 5 min",+4.2 ± 3.8%
same,"Cardiac volume, change from basal level","cats; 2.0 mg/kg i.v., after 10 min",−1.4 ± 3.0%
same,"Heart rate, change from basal level","cats; 2.0 mg/kg i.v., after 10 min",−3.1 ± 1.6%
same,"Mean blood flow accelaration (aortic), change from basal level","cats; 2.0 mg/kg i.v., after 10 min",−1.0 ± 3.1%
same,"Mean blood pressure, change from basal level","cats; 2.0 mg/kg i.v., after 10 min",−1.0 ± 1.8%
same,"Stroke volume, change from basal level","cats; 2.0 mg/kg i.v., after 10 min",+1.8 ± 2.1%
same,"Cardiac volume, change from basal level","cats; 2.0 mg/kg i.v., after 20 min",−4.7 ± 5.2%
same,"Heart rate, change from basal level","cats; 2.0 mg/kg i.v., after 20 min",−3.6 ± 1.7%
same,"Mean blood flow accelaration (aortic), change from basal level","cats; 2.0 mg/kg i.v., after 20 min",−3.8 ± 4.0%
same,"Mean blood pressure, change from basal level","cats; 2.0 mg/kg i.v., after 20 min",−5.3 ± 0.8 %
same,"Stroke volume, change from basal level","cats; 2.0 mg/kg i.v., after 20 min",−1.1 ± 5.4%
same,"Cardiac volume, change from basal level","cats; 2.0 mg/kg i.v., after 30 min",−5.5 ± 5.2%
same,"Heart rate, change from basal level","cats; 2.0 mg/kg i.v., after 30 min",−4.0 ± 2.2%
same,"Mean blood flow accelaration (aortic), change from basal level","cats; 2.0 mg/kg i.v., after 30 min",−6.2 ± 4.9%
same,"Mean blood pressure, change from basal level","cats; 2.0 mg/kg i.v., after 30 min",−9.6 ± 3.5%
same,"Stroke volume, change from basal level","cats; 2.0 mg/kg i.v., after 30 min",+1.7 ± 3.9%
same,"Cardiac volume, change from basal level",cats; [5],+22.7 ± 6.6 %
same,"Heart rate, change from basal level",cats; [5],−10.7 ± 2.5 %
same,"Mean blood flow accelaration (aortic), change from basal level",cats; [5],+22.5 ± 9.3%
same,"Mean blood pressure, change from basal level",cats; [5],−13.6 ± 5.1%
same,"Stroke volume, change from basal level",cats; [5],+38.5 ± 10.6 %
same,ED50,"[1]; Rattus norvegicus, iv, given 2 min prior calcium chloride 250-300 mg/kg i.v., read-out: Calcium chloride arrhythmia ED50 (mean effective dose)",2.03 mg/kg
same,Calcium chloride arrhythmia ED50 (mean effective dose),[1]; given 2 min prior calcium chloride 250-300 mg/kg i.v.,2.0 mg/kg
same,"effect on death from lethal ventricular fibrillation, in words",[1]; injected 2 min prior calcium chloride,prevents the death of animals
same,Number of VF (ventricular fibrillations),[2]; control 15 of 24,7^
same,Number of LHA (lethality hazardous arrhythmia),[2]; control 22 of 24,11*
same,Total numbers of arrhyt.,[2]; control 24 of 24,13**
same,Severity of arrhythmias,[2]; control 66,34* points
same,% of the ectopic contractions,[3]; 3 min after compound injection,64% and 30% and 72% and 80%
same,heart rate,[3]; 3 min after compound injection,93 beats/min and 172 beats/min and 145 beats/min and 103 beats/min
same,% of the ectopic contractions,[3]; 5 min after compound injection,52% and 20% and 63% and 82%
same,heart rate,[3]; 5 min after compound injection,89 beats/min and 167 beats/min and 138 beats/min and 98 beats/min
same,% of the ectopic contractions,[3]; [6],50% and 18% and 60% and 81%
same,heart rate,[3]; [6],102 beats/min and 163 beats/min and 129 beats/min and 75 beats/min
same,% of the ectopic contractions,[3]; [7],51% and 0% and 58% and 91%
same,heart rate,[3]; [7],88 beats/min and 159 beats/min and 125 beats/min and 100 beats/min
same,% of the ectopic contractions,[3]; [8],56% and 0% and 66% and 92%
same,heart rate,[3]; [8],74 beats/min and 155 beats/min and 132 beats/min and 78 beats/min
same,% of the ectopic contractions,[3]; [9],62% and 10% and 74% and 91%
same,heart rate,[3]; [9],94 beats/min and 168 beats/min and 135 beats/min and 117 beats/min
same,% of the ectopic contractions,[3]; [10],66% and 8% and 79% and 97%
same,heart rate,[3]; [10],105 beats/min and 185 beats/min and 148 beats/min and 106 beats/min
same,% of the ectopic contractions,[3]; [11],63% and 10% and 81% and 94%
same,heart rate,[3]; [11],128 beats/min and 198 beats/min and 159 beats/min and 109 beats/min
same,"antiarrhythmic effect, in words","[3]; concious dogs with ventricular disturbances of heart rhythm, i.v.",pronounced antiarrhythmic effect
same,"effect on heart rate, in words","[3]; concious dogs, i.v.",pronounced bradycardia
same,"tolerability / side effects, in words","[3]; concious dogs, i.v.",well tolerated by the animals; also recorded: no side effects
same,Adrenaline arrhythmia. Range of active doses,adrenaline arrhythmia,0.2−0.7 mg/kg
